Data on six compounds can be found in patent publication US10233198B2, “Pro-drugs of NSAIAs with very high skin and membranes penetration rates and their new medicinal uses” (Techfields Pharma Co., Ltd., priority 2007, dated 2019).

The subject of data set [1] is SLAC:NOD-IDDM mice, type 1 diabetes. The data set can be described thus: Blood glucose in type 1 diabetic mice, transdermal. It counts as in vivo. As to conditions: no fasting; for Blood glucose, type I diabetic mice, Baseline: baseline of the treatment group; for Blood glucose, type I diabetic mice, Average: transdermal, equal to 20 mg/kg of NSAIAs once per day for 7 weeks, fourth to seventh week. From the text: The pro-drugs in this invention lower blood glucose levels in mouse models (SLAC:NOD-IDDM, type 1 diabetes, n=7). 20% acetone solution of diethylaminoethyl acetylsalicylate.acetylsalicylic acid salt (P-1, in acetone); 4-acetamidophenyl salicylyldimethylaminobutyrate.HCl (P-6), diethylaminoethyl 5-(2,4-difluorophenyl) acetylsalicylate.5-(2,4-difluorophenyl) acetylsalicylic acid salt (P-8), diethylaminoethyl salicylsalicylate.AcOH (P-9), diethylaminoethyl salicylate.AcOH (P-10), diethylaminoethyl 5-acetamido-acetylsalicylate (P-58), diethylaminoethyl acetylsalicylsalicylate. acetylsalicylsalicylic acid salt (P-59), diethylaminoethyl acetylsalicylsalicylate. acetylsalicylsalicylsalicylic acid salt (P-60) (equal to of 20 mg/kg of NSAIAs) were administered transdermally to the backs (about 1 cm^2) of mice (fur was shaved) once per day (at 8 am) for 7 weeks. The blood glucose levels were measured once every 3 days at 3 pm (no fasting) from the fourth week to the seventh week.

Data set [2] deals with SLAC/GK rats, type 2 diabetes. The data set can be described thus: Blood glucose in type 2 diabetic rats, transdermal. The format is in vivo. As to conditions: no fasting; for Blood glucose, diabetic rats, Baseline: baseline of the treatment group. The source says:
(§1) The pro-drugs in this invention lower blood glucose levels in rat models (SLAC/GK, type 2 diabetes, n=7). 50% acetone solution of diethylaminoethyl acetylsalicylate.acetylsaficylic acid salt (P-1, in acetone); 4-acetamidophenyl salicylyldimethylaminobutyrate.HCl (P-6), diethylaminoethyl 5-(2,4-difluorophenyl) acetylsalicylate.5-(2,4-difluorophenyl) acetylsalicylic acid salt (P-8), diethylaminoethyl salicylsalicylate.AcOH (P-9), diethylaminoethyl salicylate.AcOH (P-10), diethylaminoethyl 5-acetamido-acetylsalicylate (P-58), diethylaminoethyl acetylsalicylsalicylate. acetylsalicylsalicylic acid salt (P-59), diethylaminoethyl acetylsalicylsalicylate. acetylsalicylsalicylsalicylic acid salt (P-60) (equal to of 20 mg/kg of NSAIAs) were administered transdermally to the backs (about 1.5 cm^2) of rats (fur was shaved) once per day (at 8 am) for 5 weeks. The blood glucose levels were measured once every 3 days at 4 pm (no fasting) from the second week to the fifth week. The blood lipid levels were measured at the end of the fifth week.

The test system of the next data set is normal rats. The data set can be described thus: Blood glucose in normal rats, transdermal. It counts as in vivo. As to conditions: no fasting; for Blood glucose, normal rats, Baseline: baseline of the treatment group.
Data set [3] deals with Chinese White rabbits. The data set can be described thus: Autologous blood clot pulmonary embolism model, thrombus propagation. The format is in vivo. The following applies: 15 mg/kg topically on the back; after 2 days. The procedure:
Eighteen Chinese White rabbits weighing between 3.0 and 3.5 kg (aged 6-7 months) were selected and divided into three groups (control, P-1 and […] groups, n=6). One hour before the experiment, thrombi were made by aspirating venous blood (1 ml) into a sterilized bottle to clot. To avoid fragmentation and slow lysis, the autologous blood clots were stabilized in temperature-controlled (70° C.) distilled water for 10 min. After anesthesia, the femoral veins were exposed and distally isolated, and autologous blood clots (0.05 g/kg) were injected through an indwelling catheter (20GA), which had been placed in the femoral vein isolated earlier. 50% acetone solution of diethylaminoethyl acetylsalicylate.acetylsalicylic acid salt (P-1, in acetone, 15 mg/kg) and diethylaminoethyl acetylsalicylsalicylate.acetylsalicylsalicylic acid salt (P-59, 15 mg/kg) were topically applied to the back of the rabbits. After 2 days, rabbits were euthanized with an excessive intravenous injection of sodium amobarbital (60 mg/kg). The lungs and hearts were isolated to observe whether thrombi were present in the pulmonary arteries. The lungs were immersed in 10% formalin for 24 h. Consecutive transverse sections along the obstructed pulmonary arteries were paraffin-embedded and stained with hematoxylin-eosine. […]

Data set [4] deals with SLAC/GK rats, type 2 diabetes. The data set can be described thus: Blood lipid levels in type 2 diabetic rats, transdermal. The format is in vivo.
Source text: as §1

A short description of data set [5]: In vivo penetration through skin of intact rats; distribution in plasma and tissues. As to conditions: 4 hours after 20% P-2 in 1 ml ethanol on about 5 cm^2 of rat back.
Description: The in vivo rates of penetration of pro-drugs and their parent drugs through the skin of intact rats were compared. The donor consisted of 20% pro-drugs or their parent drugs in 1 ml of ethanol applied to about 5 cm^2 area on the backs of rats (˜200 g). After 4 hours, the rats were killed, and 5 ml of methanol was added to 1 ml of blood, 1 g of liver, 1 g of kidney, or 1 g of brain (liver, kidney or brain was washed with pH 7.2 buffer for three times) and the mixtures were homogenized. The samples were then centrifuged for 5 min and analyzed using HPLC.
After 4 hours, the rats were killed, and 5 ml of methanol was added to 1 ml of blood, 1 g of liver, 1 g of kidney, or 1 g of brain (liver, kidney or brain was washed with pH 7.2 buffer for three times) and the mixtures were homogenized.
For data set [6], the system named is human breast cancer cells (BCAP-37). The data set can be described thus: Anti-tumor activity, human breast cancer xenograft in nude mice, topical. As to conditions: day 42; 30 μl of 5% (1.5 mg) topically every 8 hours; BCAP-37 xenograft; in g (unit assumed). On the procedure: For evaluation of anti-tumor activity of the pro-drugs of NSAIAs, human breast cancer cells (BCAP-37, 2-3 mm^3 of tumor tissue was used in each mouse) were subcutaneously xenografted into nude mice (BALE, 12 groups, 7 mice each group). After 14 days, the tumors were growing to the size of 50±10 mm^3 (0.05 ml). Then 30 μl of 5% (equal to 1.5 mg of the pro-drugs) diethylaminoethyl acetylsalicylate.acetylsalicylic acid salt (P-1, in acetone); 1-piperidinepropyl 2[(2,6-dichlorophenyl)amino]benzene acetate.AcOH (P-2, in water), 1-pyrrolidinepropyl 2-(3-benzoylphenyl) propionate.AcOH (P-3, in water), 4-piperidinemethyl 2-(3-phenoxyphenyl)propionate.AcOH (P-4, in water), 3-piperidinemethyl 2-(ρ-isobutylphenyl) propionate.AcOH (P-5, in water), diethylaminoethyl 1-(p-chlorobenzoyl)-5-methoxy-2-methylindole 3-acetate.AcOH (P-11, in water), 2-(4-morpholinyl)ethyl (Z)-5-fluoro-2-methyl-1-[(4-methylsulfinyl) phenylmethylene]-1H-indene-3-acetate.AcOH (P-12, in water), diethylaminoethyl 2-(2,4-dichlorophenoxy)benzeneacetate.AcOH (P-19, in water), diethylaminoethyl 2-(8-methyl-10, 11-dihydro-11-oxodibenz(b,f)oxepin-2-yl)propionate.AcOH (P-37, in water), 1-pyrrolidinepropyl 2-[[(3-(trifluoromethyl)phenyl)amino]benzoate.AcOH (P-48, in water), 4-N,N-dimethylaminobutyryloxy-2-methyl-N-2-pyridinyl-2H,1,2-benzothiazine-3-carb oxamide 1,1-dioxide.HCl (P-51, in acetone) was topically applied to the human breast cancer cells-implanted area (near the front leg) every 8 hours.
Background: Xenograft models place foreign cells or tissue in a host animal.

The subject of data set [7] is human colon cancer cells (LS174J). The data set can be described thus: Anti-tumor activity, human colon cancer xenograft in nude mice, topical. The following applies: for Weight of nude mice: day 30, about 30 μl of 5% (1.5 mg) topically every 8 hours. On the procedure: In the second anti-tumor experiment, human colon cancer cells (LS174J, 2-3 mm^3 of tumor tissue was used in each mouse) were subcutaneously xenografted into nude mice (BALB). After 7 days, the tumors were growing to the size of 55±10 mm^3 (0.055 ml). Then about 30 μl of 5% (equal to 1.5 mg of the pro-drugs) diethylaminoethyl acetylsalicylate.acetylsalicylic acid salt (P-1, in acetone); 1-piperidinepropyl 2[(2,6-dichlorophenyl)amino]benzene acetate.AcOH (P-2, in water), 1-pyrrolidinepropyl 2-(3-benzoylphenyl) propionate.AcOH (P-3, in water), 4-piperidinemethyl 2-(3-phenoxyphenyl)propionate.AcOH (P-4, in water), 3-piperidinemethyl 2-(ρ-isobutylphenyl) propionate.AcOH (P-5, in water), diethylaminoethyl 1-methyl-5-(4-methylbenzoyl)-1H-pyrrole-2-acetate.AcOH (P-13, in water), 2-(4-morpholinyl)ethyl 2-amino-3-benzoylbenzeneacetateAcOH (P-16, in water), diethylaminoethyl 2-(10,11-dihydro-10-oxodibenzo(b,f)thiepin-2-yl)propionate.AcOH (P-36), diethylaminoethyl 2-[(2,3-dimethylphenypamino]benzoate.AcOH (P-46, in water), diethylaminoethyl 2-[(2,6-dichloro-3-methylphenyl)amino]benzoate.AcOH (P47, in water), N-(2-thiazoyl)-4-N,N-dimethylaminobutyryloxy-2-methyl-2H,1,2-benzothiazine-3-car boxamide 1,1-dioxide.HCl (P-52, in acetone) was topically applied to the human colon cancer cells-implanted area (near the front leg) every 8 hours.

Data set [8] concerns Chinese White rabbits. The data set can be described thus: Malassezia-induced psoriasis-like lesions. It counts as in vivo. As to conditions: 5% aqueous solution applied twice per day; 10 days after the application. From the text:
COX-1 and COX-2 play a very important role in animal immune-responses. NSAIAs inhibite COX-1 and COX-2. The pro-drugs of NSAIAs in this invention may be very useful for treating psoriasis, discoid lupus erythematosus, systemic lupus erythematosus (SLE), and other autoimmune diseases. Heavy suspensions of Malassezia [Rosenberg, E. W., et al., Mycopathologia, 72, 147-154 (1980)] were applied to the shaved skin on the backs of the Chinese white rabbits (n=4×6) twice (at 7 am and 7 pm) per day for 2 weeks, lesions similar to psoriasis resulted.

The conditions of data set [9]: prodrug versus testosterone (TS); cited from earlier work.

In the case of `CC(=O)Oc1ccccc1C(=O)O.CCN(CC)CCOC(=O)c1ccccc1OC(C)=O` [P-1, diethylaminoethyl acetylsalicylate.acetylsalicylic acid salt], in data set [1], the “Blood glucose, type I diabetic mice, Baseline” value is 26.1 ± 5 mmol/L and the “Blood glucose, type I diabetic mice, Average” value is reported as 6.5 ± 1 mmol/L. In data set [2], the “Blood glucose, diabetic rats, Baseline” value is 16.1 ± 3 mmol/L. Also, the “Blood glucose, normal rats, Baseline” value in the data set with normal rats is 6.4 ± 1 mmol/L. In addition, in the data set with normal rats (transdermal, equal to 20 mg/kg of NSAIAs once per day for 5 weeks, second to fifth week), the “Blood glucose, normal rats, Average” value is on record as 6.3 ± 1 mmol/L. Besides, in the data set with Chinese White rabbits [3], the “Histology of lung tissue and vascular walls after clot injection” value is “both lung tissue and vascular walls were normal”. In addition, the “Triglycerides, Baseline” value in data set [4] (baseline of the treatment group) is reported as 5.9 ± 0.5 mmol/L.
Take `CC(=O)O.O=C(Cc1ccccc1Nc1c(Cl)cccc1Cl)OCCCN1CCCCC1` [P-2, 1-piperidinepropyl 2[(2,6-dichlorophenyl)amino]benzene acetate.AcOH]: in [5], the “Brain level of prodrug or metabolite” value was 25 ± 6 µg/g, the “Kidney level of prodrug or metabolite” value is 20 ± 6 µg/g, the “Liver level of prodrug or metabolite” value is 22 ± 8 µg/g and the “Plasma level of prodrug or metabolite” value turned out to be 40000 ± 10000 ng/mL. In addition, the “Weight of nude mice” value in data set [6] is listed as 22 ± 2. Besides, in data set [7], the “Weight of nude mice” value is reported as 22 ± 2.
Turning to `CC(=O)O.CCN(CC)CCOC(=O)Cc1ccc(C(=O)c2ccc(C)cc2)n1C` [P-13, diethylaminoethyl 1-methyl-5-(4-methylbenzoyl)-1H-pyrrole-2-acetate.AcOH], in the data set on Chinese White rabbits [8], the Psoriasis-like lesions entry is listed as “the lesions were resolved”. In data set [7], the “Weight of nude mice” value stood at 21 ± 2.
For `CN(C)CCCC(=O)OC1=C(C(=O)Nc2nccs2)N(C)S(=O)(=O)c2ccccc21.Cl` [P-52, N-(2-thiazoyl)-4-N,N-dimethylaminobutyryloxy-2-methyl-2H,1,2-benzothiazine-3-car boxamide 1,1-dioxide.HCl], the Tumor size in [7] (day 30, about 30 μl of 5% (1.5 mg) topically every 8 hours from day 7) came out at 690 ± 250 mm^3.
As to `CC(=O)Oc1ccccc1C(=O)Oc1ccccc1C(=O)O.CCN(CC)CCOC(=O)c1ccccc1OC(=O)c1ccccc1OC(C)=O` [P-59, diethylaminoethyl acetylsalicylsalicylate. acetylsalicylsalicylic acid salt], in data set [1], the “Blood glucose, type I diabetic mice, Baseline” value is listed as 24.3 ± 3 mmol/L and the “Blood glucose, type I diabetic mice, Average” value worked out at 8.7 ± 1 mmol/L. Besides, in data set [2], the “Blood glucose, diabetic rats, Baseline” value is on record as 16.3 ± 3 mmol/L. The “Blood glucose, diabetic rats, Average” value in data set [2] (transdermal, equal to 20 mg/kg of NSAIAs once per day for 5 weeks, measured every 3 days, second to fifth week) worked out at 8.7 ± 1 mmol/L. For the same compound, the “Blood glucose, normal rats, Baseline” value in the data set on normal rats was 7.2 ± 1 mmol/L. Further, in the data set on Chinese White rabbits [3], the “Histology of lung tissue and vascular walls after clot injection” value was “both lung tissue and vascular walls were normal”. The “Triglycerides, Average” value in data set [4] (end of fifth week, transdermal, equal to 20 mg/kg of NSAIAs once per day) is given as 2.9 ± 0.2 mmol/L.
For the compound `CN(C)CCCC(=O)O[C@H]1CC[C@H]2[C@@H]3CCC4=CC(=O)CC[C@]4(C)[C@H]3CC[C@]12C.Cl` [TSBH, testosteronyl-4-dimethylaminobutyrate.HCl], the “Diffusion through human skin, times faster than the drug (TS) itself” value in [9] is on record as about 60 times.
